In brackets after ≈: the same amount, converted by molar mass.

The results in this text go back to ChEMBL document CHEMBL1255485, “In vitro activity of fidaxomicin (OPT-80) tested against contemporary clinical isolates of Staphylococcus spp. and Enterococcus spp” (2010).

Holding throughout (assay type): functional
The subject of assay [1] is Staphylococcus aureus. Nature of the assay: Antibacterial activity against methicillin-resistant Staphylococcus aureus assessed as percent resistant isolates by broth microdilution method. For orientation: In broth dilution the organism is exposed to a series of concentrations in liquid medium.
In assay [2] the test system is Staphylococcus aureus. In words: Antibacterial activity against methicillin-susceptible Staphylococcus aureus assessed as percent resistant isolates by broth microdilution method.
For assay [3], the system named is Enterococcus faecalis. Nature of the assay: Antibacterial activity against vancomycin-resistant Enterococcus faecalis by broth microdilution method.
Assay [4] is described as follows: Selectivity ratio of MIC50 for vancomycin-resistant Enterococcus faecium to MIC50 for vancomycin-resistant Enterococcus faecalis.
The test system of assay [5] is Enterococcus faecium. In words: Antibacterial activity against vancomycin-susceptible Enterococcus faecium by broth microdilution method.
In assay [6] the test system is Enterococcus faecium. Nature of the assay: Selectivity ratio of MBC to MIC for Enterococcus faecium.
Assay [7] concerns Enterococcus faecium. In words: Antibacterial activity against vancomycin-resistant Enterococcus faecium by broth microdilution method.
Assay [8] in a line: Selectivity ratio of MIC50 for vancomycin-susceptible Enterococcus faecium to MIC50 for vancomycin-susceptible Enterococcus faecalis.
The test system of assay [9] is Enterococcus faecalis. In words: Antibacterial activity against vancomycin-susceptible Enterococcus faecalis by broth microdilution method.
The nature of assay [10]: Selectivity ratio of MIC90 for vancomycin-resistant Enterococcus faecium to MIC90 for vancomycin-resistant Enterococcus faecalis.
Assay [11] deals with Staphylococcus. In words: Antibacterial activity against methicillin-resistant coagulase-negative Staphylococcus by broth microdilution method.
Assay [12] relates to Staphylococcus aureus. In words: Selectivity ratio of MIC50 for methicillin-susceptible Staphylococcus aureus to MIC50 for methicillin-resistant Staphylococcus aureus.
A further assay concerns Enterococcus. In words: Antibacterial activity against Enterococcus by agar dilution technique.
In assay [13] the test system is Enterococcus faecalis. In words: Selectivity ratio of MBC to MIC for Enterococcus faecalis.
For assay [14], the system named is Staphylococcus. Nature of the assay: Antibacterial activity against methicillin-susceptible coagulase-negative Staphylococcus by broth microdilution method.
For assay [15], the system named is Staphylococcus. In words: Selectivity ratio of MBC to MIC for coagulase-negative Staphylococcus.
The subject of assay [16] is Staphylococcus aureus. In words: Selectivity ratio of MBC to MIC for Staphylococcus aureus.
Assay [17] concerns Staphylococcus aureus. In words: Antibacterial activity against methicillin-susceptible Staphylococcus aureus by broth microdilution method.
Assay [18] relates to Staphylococcus aureus. Nature of the assay: Antibacterial activity against methicillin-resistant Staphylococcus aureus by broth microdilution method.
Assay [19] relates to Staphylococcus. In words: Antibacterial activity against Staphylococcus by agar dilution technique.
The test system of assay [20] is Staphylococcus aureus. In words: Antibacterial activity against linezolid-nonsusceptible Staphylococcus aureus by broth microdilution method.
Assay [21] relates to Staphylococcus. In words: Antibacterial activity against methicillin-resistant coagulase-negative Staphylococcus assessed as percent resistant isolates by broth microdilution method.
Assay [22] concerns Enterococcus faecium. In words: Antibacterial activity against vancomycin-susceptible Enterococcus faecium assessed as percent resistant isolates by broth microdilution method.
Assay [23] deals with Enterococcus faecalis. Nature of the assay: Antibacterial activity against vancomycin-susceptible Enterococcus faecalis assessed as percent susceptible isolates by broth microdilution method.
Assay [24] deals with Enterococcus faecalis. Nature of the assay: Antibacterial activity against vancomycin-susceptible Enterococcus faecalis assessed as percent resistant isolates by broth microdilution method.
Assay [25] deals with Enterococcus faecalis. In words: Antibacterial activity against vancomycin-resistant Enterococcus faecalis assessed as percent resistant isolates by broth microdilution method.
For assay [26], the system named is Staphylococcus. In words: Antibacterial activity against methicillin-susceptible coagulase-negative Staphylococcus assessed as percent susceptible isolates by broth microdilution method.
Assay [27] relates to Enterococcus faecium. Nature of the assay: Antibacterial activity against vancomycin-susceptible Enterococcus faecium assessed as percent susceptible isolates by broth microdilution method.
Assay [28] has as its system Enterococcus faecium. Nature of the assay: Antibacterial activity against vancomycin-resistant Enterococcus faecium assessed as percent susceptible isolates by broth microdilution method.
Assay [29] relates to Staphylococcus. In words: Antibacterial activity against methicillin-resistant coagulase-negative Staphylococcus assessed as percent susceptible isolates by broth microdilution method.
Assay [30] has as its system Enterococcus faecalis. In words: Antibacterial activity against vancomycin-resistant Enterococcus faecalis assessed as percent susceptible isolates by broth microdilution method.
Assay [31] relates to Enterococcus faecium. Nature of the assay: Antibacterial activity against vancomycin-resistant Enterococcus faecium assessed as percent resistant isolates by broth microdilution method.

For the molecule `CCC[C@@H]1C[C@@H](C(=O)N[C@@H]([C@H]2O[C@H](SC)[C@H](O)[C@@H](O)[C@H]2O)[C@H](C)Cl)N(C)C1` [CLINDAMYCIN], the Activity came out at 43.8% in the assay on Staphylococcus aureus [1] and 2.3% with Staphylococcus aureus [2].

For the molecule `CC[C@H]1OC(=O)[C@H](C)[C@@H](O[C@H]2C[C@@](C)(OC)[C@@H](O)[C@H](C)O2)[C@H](C)[C@@H](O[C@@H]2O[C@H](C)C[C@H](N(C)C)[C@H]2O)[C@](C)(O)C[C@@H](C)C(=O)[C@H](C)[C@@H](O)[C@]1(C)O` [ERYTHROMYCIN], the Activity with Staphylococcus aureus [1] is reported as 87.5%; in the assay on Staphylococcus aureus [2] it was 16.3%.

By MIC is commonly meant the least concentration at which growth counts as inhibited. High values mean a less susceptible organism, low ones a more susceptible organism. What is called MIC50 is the lowest concentration that inhibits either 50% of growth or 50% of the strains tested, depending on the study. The low end stands for higher susceptibility, the high end for lower susceptibility. One may read the MIC90 as the lowest concentration that inhibits either 90% of growth or 90% of the strains tested, depending on the study. Consider `CCc1c(Cl)c(O)c(Cl)c(O)c1C(=O)O[C@H]1[C@H](O)[C@H](OC)[C@H](OC/C2=C\C=C\C[C@H](O)/C(C)=C/[C@H](CC)[C@@H](O[C@@H]3OC(C)(C)[C@@H](OC(=O)C(C)C)[C@H](O)[C@@H]3O)/C(C)=C/C(C)=C/C[C@@H]([C@@H](C)O)OC2=O)O[C@@H]1C` [FIDAXOMICIN], for which the values for the MIC with Enterococcus faecalis [3], against Enterococcus faecalis [9] and against Staphylococcus aureus [20] were 2 µg/mL (≈ 1.89 µM), 2 µg/mL (≈ 1.89 µM) and over 4 µg/mL, respectively. For the same molecule, the MIC50 amounted to 2 µg/mL (≈ 1.89 µM) in the assay with Enterococcus faecalis [3]; 4 µg/mL (≈ 3.78 µM) in the assay on Enterococcus faecium [5]; 4 µg/mL (≈ 3.78 µM) against Enterococcus faecium [7]; 2 µg/mL (≈ 1.89 µM) against Enterococcus faecalis [9]; 1 µg/mL (≈ 0.945 µM) against Staphylococcus [11]; 2 µg/mL (≈ 1.89 µM) against Staphylococcus [14]. The MIC50 with Staphylococcus aureus [17] turned out to be 8 µg/mL (≈ 7.56 µM); in the assay with Staphylococcus aureus [18], 4 µg/mL (≈ 3.78 µM). In addition, the MIC90 amounted to 2 µg/mL (≈ 1.89 µM) with Enterococcus faecalis [3]; 4 µg/mL (≈ 3.78 µM) in the assay on Enterococcus faecium [5]; 4 µg/mL (≈ 3.78 µM) against Enterococcus faecium [7]; 4 µg/mL (≈ 3.78 µM) in the assay on Enterococcus faecalis [9]; 4 µg/mL (≈ 3.78 µM) in the assay on Staphylococcus [11]; 8 µg/mL (≈ 7.56 µM) in the assay on Enterococcus. Besides, the MIC90 is 4 µg/mL (≈ 3.78 µM) in the assay on Staphylococcus [14], 8 µg/mL (≈ 7.56 µM) against Staphylococcus aureus [17], 8 µg/mL (≈ 7.56 µM) against Staphylococcus aureus [18] and 2 µg/mL (≈ 1.89 µM) in the assay with Staphylococcus [19]. Moreover, the Ratio (in assay [4]; in [8]; in assay [10]; in the assay with Staphylococcus aureus [12]) was 2 each time. The Selectivity ratio entry in the assay on Enterococcus faecium [6], in the assay on Enterococcus faecalis [13], in the assay on Staphylococcus [15] and in the assay on Staphylococcus aureus [16] was “>=16” in each case.

Regarding `C[C@H]1COc2c(N3CCN(C)CC3)c(F)cc3c(=O)c(C(=O)O)cn1c23.C[C@H]1COc2c(N3CCN(C)CC3)c(F)cc3c(=O)c(C(=O)O)cn1c23.O` [LEVOFLOXACIN], the results for the Activity in the assay with Staphylococcus aureus [1] and in the assay with Staphylococcus aureus [2] were 56.3% and 9.3%, respectively.

As for `CO[C@H]1/C=C/O[C@@]2(C)Oc3c(C)c(O)c4c(O)c(c(/C=N/N5CCN(C)CC5)c(O)c4c3C2=O)NC(=O)/C(C)=C\C=C\[C@H](C)[C@H](O)[C@@H](C)[C@@H](O)[C@@H](C)[C@H](OC(C)=O)[C@@H]1C` [RIFAMPIN], the Activity came to 18.8% with Staphylococcus aureus [1] and 2.3% in the assay on Staphylococcus aureus [2].

For the molecule `CN[C@H](CC(C)C)C(=O)N[C@H]1C(=O)N[C@@H](CC(N)=O)C(=O)N[C@H]2C(=O)N[C@H]3C(=O)N[C@H](C(=O)N[C@H](C(=O)O)c4cc(O)cc(O)c4-c4cc3ccc4O)[C@H](O)c3ccc(c(Cl)c3)Oc3cc2cc(c3O[C@@H]2O[C@H](CO)[C@@H](O)[C@H](O)[C@H]2O[C@H]2C[C@](C)(N)[C@H](O)[C@H](C)O2)Oc2ccc(cc2Cl)[C@H]1O` [VANCOMYCIN], the Activity with Staphylococcus [21] is listed as 0%; with Staphylococcus aureus [1], 15.6%; in the assay on Staphylococcus aureus [2], 0%; in the assay on Enterococcus faecium [22], 0%; in the assay on Enterococcus faecalis [23], 100%; with Enterococcus faecalis [24], 0%. For the same molecule, the Activity in the assay on Enterococcus faecalis [25] is given as 100%; in the assay with Staphylococcus [26] it was 100%; in the assay on Enterococcus faecium [27] it was 100%; with Enterococcus faecium [28] it was 0%; in the assay on Staphylococcus [29], 100%; in the assay with Enterococcus faecalis [30], 0%. Further, the Activity with Enterococcus faecium [31] came out at 100%. The figures for the MIC with Enterococcus faecalis [3], with Enterococcus faecium [7] and against Enterococcus faecalis [9] were over 16 µg/mL, over 16 µg/mL and 1 µg/mL (≈ 0.69 µM), respectively. In addition, the MIC50 against Enterococcus faecalis [3] was over 16 µg/mL; in the assay with Enterococcus faecium [5], over 0.5 µg/mL; against Enterococcus faecium [7] it was over 16 µg/mL; against Enterococcus faecalis [9], 1 µg/mL (≈ 0.69 µM); against Staphylococcus [11] it was 2 µg/mL (≈ 1.38 µM); against Staphylococcus [14], 1 µg/mL (≈ 0.69 µM). Also, the MIC50 with Staphylococcus aureus [17] and in the assay with Staphylococcus aureus [18] was 1 µg/mL (≈ 0.69 µM) each time. Also, the MIC90 with Enterococcus faecalis [3] is over 16 µg/mL; against Enterococcus faecium [5], 1 µg/mL (≈ 0.69 µM); against Enterococcus faecium [7] it was over 16 µg/mL; in the assay on Enterococcus faecalis [9] it was 1 µg/mL (≈ 0.69 µM); against Staphylococcus [11], 2 µg/mL (≈ 1.38 µM); against Staphylococcus [14], 2 µg/mL (≈ 1.38 µM). For the same molecule, the results for the MIC90 with Staphylococcus aureus [17] and with Staphylococcus aureus [18] were 1 µg/mL (≈ 0.69 µM) and 16 µg/mL (≈ 11 µM), respectively.
